Numbers after ± are expanded uncertainties.
Conditions: Liquid, Vibrating tube method

## c1ccccc1 [benzene]
298.15 K, 100 kPa
  mass density: 873.5 ± 0.2 kg/m3
298.15 K, 2130 kPa
  mass density: 875.1 ± 0.2 kg/m3
298.15 K, 4150 kPa
  mass density: 876.7 ± 0.2 kg/m3
298.15 K, 6180 kPa
  mass density: 878.4 ± 0.2 kg/m3
298.15 K, 8210 kPa
  mass density: 879.9 ± 0.2 kg/m3
298.15 K, 10230 kPa
  mass density: 881.5 ± 0.2 kg/m3
298.15 K, 11250 kPa
  mass density: 882.3 ± 0.2 kg/m3
298.15 K, 12260 kPa
  mass density: 883.1 ± 0.3 kg/m3
298.15 K, 14290 kPa
  mass density: 884.6 ± 0.3 kg/m3
298.15 K, 16310 kPa
  mass density: 886.1 ± 0.3 kg/m3
298.15 K, 18340 kPa
  mass density: 887.6 ± 0.3 kg/m3
298.15 K, 20370 kPa
  mass density: 889.1 ± 0.3 kg/m3
298.15 K, 22390 kPa
  mass density: 890.5 ± 0.3 kg/m3
298.15 K, 24420 kPa
  mass density: 892 ± 0.3 kg/m3
298.15 K, 26450 kPa
  mass density: 893.4 ± 0.3 kg/m3
298.15 K, 28470 kPa
  mass density: 894.7 ± 0.3 kg/m3
298.15 K, 29490 kPa
  mass density: 895.4 ± 0.3 kg/m3
298.15 K, 30500 kPa
  mass density: 896.1 ± 0.3 kg/m3
298.15 K, 32530 kPa
  mass density: 897.5 ± 0.3 kg/m3
298.15 K, 34550 kPa
  mass density: 898.8 ± 0.3 kg/m3
298.15 K, 36580 kPa
  mass density: 900.1 ± 0.3 kg/m3
298.15 K, 38600 kPa
  mass density: 901.4 ± 0.3 kg/m3
298.15 K, 39620 kPa
  mass density: 902 ± 0.3 kg/m3
308.15 K, 100 kPa
  mass density: 862.9 ± 0.2 kg/m3
308.15 K, 2130 kPa
  mass density: 864.7 ± 0.2 kg/m3
308.15 K, 4150 kPa
  mass density: 866.4 ± 0.2 kg/m3
308.15 K, 6180 kPa
  mass density: 868.2 ± 0.2 kg/m3
308.15 K, 8210 kPa
  mass density: 869.9 ± 0.2 kg/m3
308.15 K, 10230 kPa
  mass density: 871.6 ± 0.3 kg/m3
308.15 K, 11250 kPa
  mass density: 872.4 ± 0.3 kg/m3
308.15 K, 12260 kPa
  mass density: 873.2 ± 0.3 kg/m3
308.15 K, 14290 kPa
  mass density: 874.8 ± 0.3 kg/m3
308.15 K, 16310 kPa
  mass density: 876.4 ± 0.3 kg/m3
308.15 K, 18340 kPa
  mass density: 878 ± 0.3 kg/m3
308.15 K, 20370 kPa
  mass density: 879.5 ± 0.3 kg/m3
308.15 K, 22390 kPa
  mass density: 881.1 ± 0.3 kg/m3
308.15 K, 24420 kPa
  mass density: 882.6 ± 0.3 kg/m3
308.15 K, 26450 kPa
  mass density: 884 ± 0.3 kg/m3
308.15 K, 28470 kPa
  mass density: 885.5 ± 0.3 kg/m3
308.15 K, 29490 kPa
  mass density: 886.2 ± 0.3 kg/m3
308.15 K, 30500 kPa
  mass density: 886.9 ± 0.3 kg/m3
308.15 K, 32530 kPa
  mass density: 888.4 ± 0.3 kg/m3
308.15 K, 34550 kPa
  mass density: 889.7 ± 0.3 kg/m3
308.15 K, 36580 kPa
  mass density: 891.1 ± 0.3 kg/m3
308.15 K, 38600 kPa
  mass density: 892.5 ± 0.3 kg/m3
308.15 K, 39620 kPa
  mass density: 893.2 ± 0.3 kg/m3
318.15 K, 100 kPa
  mass density: 852.3 ± 0.2 kg/m3
318.15 K, 2130 kPa
  mass density: 854.2 ± 0.2 kg/m3
318.15 K, 4150 kPa
  mass density: 856.1 ± 0.2 kg/m3
318.15 K, 6180 kPa
  mass density: 857.9 ± 0.2 kg/m3
318.15 K, 8210 kPa
  mass density: 859.7 ± 0.2 kg/m3
318.15 K, 10230 kPa
  mass density: 861.5 ± 0.3 kg/m3
318.15 K, 11250 kPa
  mass density: 862.4 ± 0.3 kg/m3
318.15 K, 12260 kPa
  mass density: 863.2 ± 0.3 kg/m3
318.15 K, 14290 kPa
  mass density: 865 ± 0.3 kg/m3
318.15 K, 16310 kPa
  mass density: 866.6 ± 0.3 kg/m3
318.15 K, 18340 kPa
  mass density: 868.3 ± 0.3 kg/m3
318.15 K, 20370 kPa
  mass density: 869.9 ± 0.3 kg/m3
318.15 K, 22390 kPa
  mass density: 871.6 ± 0.3 kg/m3
318.15 K, 24420 kPa
  mass density: 873.2 ± 0.3 kg/m3
318.15 K, 26450 kPa
  mass density: 874.7 ± 0.3 kg/m3
318.15 K, 28470 kPa
  mass density: 876.2 ± 0.3 kg/m3
318.15 K, 29490 kPa
  mass density: 877 ± 0.3 kg/m3
318.15 K, 30500 kPa
  mass density: 877.8 ± 0.3 kg/m3
318.15 K, 32530 kPa
  mass density: 879.2 ± 0.3 kg/m3
318.15 K, 34550 kPa
  mass density: 880.7 ± 0.3 kg/m3
318.15 K, 36580 kPa
  mass density: 882.1 ± 0.3 kg/m3
318.15 K, 38600 kPa
  mass density: 883.6 ± 0.3 kg/m3
318.15 K, 39620 kPa
  mass density: 884.3 ± 0.3 kg/m3
328.15 K, 100 kPa
  mass density: 841.5 ± 0.2 kg/m3
328.15 K, 2130 kPa
  mass density: 843.6 ± 0.2 kg/m3
328.15 K, 4150 kPa
  mass density: 845.6 ± 0.2 kg/m3
328.15 K, 6180 kPa
  mass density: 847.5 ± 0.2 kg/m3
328.15 K, 8210 kPa
  mass density: 849.5 ± 0.3 kg/m3
328.15 K, 10230 kPa
  mass density: 851.3 ± 0.3 kg/m3
328.15 K, 11250 kPa
  mass density: 852.3 ± 0.3 kg/m3
328.15 K, 12260 kPa
  mass density: 853.2 ± 0.3 kg/m3
328.15 K, 14290 kPa
  mass density: 855 ± 0.3 kg/m3
328.15 K, 16310 kPa
  mass density: 856.8 ± 0.3 kg/m3
328.15 K, 18340 kPa
  mass density: 858.6 ± 0.3 kg/m3
328.15 K, 20370 kPa
  mass density: 860.3 ± 0.3 kg/m3
328.15 K, 22390 kPa
  mass density: 862 ± 0.3 kg/m3
328.15 K, 24420 kPa
  mass density: 863.7 ± 0.3 kg/m3
328.15 K, 26450 kPa
  mass density: 865.3 ± 0.3 kg/m3
328.15 K, 28470 kPa
  mass density: 866.9 ± 0.3 kg/m3
328.15 K, 29490 kPa
  mass density: 867.8 ± 0.3 kg/m3
328.15 K, 30500 kPa
  mass density: 868.6 ± 0.3 kg/m3
328.15 K, 32530 kPa
  mass density: 870.1 ± 0.3 kg/m3
328.15 K, 34550 kPa
  mass density: 871.7 ± 0.3 kg/m3
328.15 K, 36580 kPa
  mass density: 873.1 ± 0.3 kg/m3
328.15 K, 38600 kPa
  mass density: 874.7 ± 0.3 kg/m3
328.15 K, 39620 kPa
  mass density: 875.4 ± 0.3 kg/m3
